Data on one molecule can be found in patent publication US11851449B2, “Heterocyclic amide compounds having an RORvt inhibitory action” (TAKEDA PHARMACEUTICAL COMPANY LIMITED, priority 2013, dated 2023).

The structures appear in SMILES notation.

In assay [1] the target is T1, RORγt (Homo sapiens, UniProt P51449).
T1 sequence (P51449 1-497 isoform P51449-2): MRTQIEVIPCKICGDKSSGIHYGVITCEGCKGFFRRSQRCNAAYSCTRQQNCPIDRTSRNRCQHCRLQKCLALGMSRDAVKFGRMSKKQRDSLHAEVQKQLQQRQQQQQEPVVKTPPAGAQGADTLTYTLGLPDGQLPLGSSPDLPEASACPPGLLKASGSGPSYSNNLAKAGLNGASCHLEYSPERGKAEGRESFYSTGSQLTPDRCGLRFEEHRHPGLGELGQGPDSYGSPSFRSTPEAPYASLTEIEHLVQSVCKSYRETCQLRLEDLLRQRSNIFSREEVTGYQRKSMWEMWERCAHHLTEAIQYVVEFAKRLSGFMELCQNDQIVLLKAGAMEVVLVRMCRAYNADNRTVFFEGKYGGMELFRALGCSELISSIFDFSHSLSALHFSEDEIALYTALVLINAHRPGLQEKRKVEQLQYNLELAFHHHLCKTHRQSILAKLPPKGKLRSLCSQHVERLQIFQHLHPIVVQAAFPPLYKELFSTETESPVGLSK
The experiment in a line: Cofactor recruitment test (Alpha Screen, biotinylated SRC-1 peptide). The conditions noted are these: read-out: signal value inhibitory rate (%) at test compound 1 μM. Type of assay: biochemical. As to the method: Cofactor Recruitment Test
Cofactor recruitment test was performed by Alpha Screen (Histidine Detection Kit, PerkinElmer) method. First, a test compound was diluted with an assay buffer (50 mM Tris-HCl (pH 7.5), 50 mM KCl, 1 mM DTT, 0.1% BSA) and added to a 384 well plate by 5 μL. […] The mixture was stood in a dark place for 1 hr, and the signal value was measured by Envision (PerkinElmer).

The subject of another assay is IL-17A gene expression. The experiment in a line: Effect on IL-23-induced IL-17A gene expression in mice. Type of assay: in vivo. The settings on record: Balb/c mice, ear tissue 24 hr after intradermal IL-23; 100 mg/kg orally 30 min before and 8 hr after IL-23; versus the negative control group. As to the method: Effect on IL-23-Induced IL-17A Gene Expression in Mice
A mouse IL-23 solution (500 ng/10 μL, prepared by Takeda Pharmaceutical Company Limited) or PBS (10 μL, negative control group) was administered intradermally in the ear of Balb/c mice (Charles River Japan, male, 7 weeks old). Twenty-four hr after administration, the ear was resected under isoflurane anesthesia. The test compound was suspended in 0.5% methylcellulose and administered orally 30 min before and 8 hr after IL-23 administration.
RNA extraction from the ear tissue and quantitative PCR were performed as follows. Specifically, ear tissue 5 mm in diameter was punched from an area of the resected ear centering on the IL-23 injection site, and the tissue was immersed in RNAlater (QIAGEN) for at least 18 hr. The RNAlater-treated ear tissue was homogenized in 350 μL of RLT buffer (RNeasy mini kit, QIAGEN) and treated (55° C., 10 min) with Proteinase K (QIAGEN). Total RNA was then extracted according to the RNeasy mini kit protocol. The RNA thus obtained was then reverse transcribed into cDNA using the High-Capacity RNA-to-cDNA kit (Applied Biosystems), and the amount of each cytokine expressions was measured by real-time PCR (Viia7™, Applied Biosystems). The PCR buffer used was TaqMan Fast Advanced Master Mix (Applied Biosystems), and TaqMan Gene Expression Assays (Applied Biosystems) Mm00439618 m1 (IL-17A) and 4352341E (β-actin) were used for cytokine gene detection. The IL-17A gene expression level was normalized to the β-actin gene expression level, and the percent inhibition of IL-17A gene expression with the test compound was then calculated.
The results obtained with the above-described method (percent inhibition of IL-17A gene expression with oral administration of the test compound) are shown in Table 3.

Assay [2] relates to mouse model of IL-23-induced psoriasis. The experiment in a line: Effect in a mouse model of IL-23-induced psoriasis. The format is in vivo. The settings on record: Balb/c mice, 100 mg/kg orally twice daily, versus the negative control group. As to the method: Effect in a Mouse Model of IL-23-Induced Psoriasis
Mouse IL-23 (500 ng/15 μL, R&D) or PBS (15 μL, negative control group) was administered intradermally in the ear of Balb/c mice (Charles River Japan, male, 7 weeks old) 5 times every other days. Seven hr after IL-23 administration at 8 days after the initial administration (final administration), the mice were anesthetized with isoflurane, and ear thickness was measured with calipers. After the ear thickness was measured, the ear was resected, the tissue 8 mm in diameter was punched from an area centering on the IL-23 injection site, and the tissue was weighed. […]
The change in ear thickness in this model was evaluated by calculating the difference in measured thickness between before IL-23 administration and 7 hr after the final IL-23 administration.
The amount of IL-17 in the ear tissue was performed as follows. […] The homogenized solution was centrifuged, and the amount of IL-17 in the supernatant was measured using ELISA kit (R&D), and the amount of protein in the supernatant was measured using pierce BCA protein assay kit (Thermo scientific). The amount of IL-17 in each ear tissue was normalized to the amount of protein, and the percent inhibition of IL-17A production with the test compound was then calculated. […]

For assay [3], the target named is T1, RORγt. Description: RORγt binding test (TR-FRET, fluorescent-labeled cholesterol). The conditions noted are these: read-out: binding inhibitory rate (%) of fluorescent-labeled cholesterol to RORγt at test compound 1 μM. Put shortly: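 His-tagged RORγt and BODIPY-cholesterol were incubated with compound for 20 min at room temperature in Tris-HCl pH 7.5, 100 mM NaCl, 1 mM DTT and 0.1% BSA. Terbium anti-His antibody was then added for a further 20 min.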

The target of assay [4] is T1, RORγt. Description: Jurkat reporter test (human IL-17 ROR response element luciferase reporter). Type of assay: cell-based. The settings on record: Jurkat, read-out: luminescence level inhibitory rate (%) at test compound 3 μM. Put shortly: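 Luminescence (Bright-Glo, 10 min, RT) was measured after overnight compound treatment of electroporated Jurkat cells (1350 V, 10 ms interval, 3 pulses). The reaction medium was RPMI with 10% lipid-reduced FCS, 10 mM HEPES (pH 7.5) and 5 μM lovastatin.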

Regarding `COc1ccc([C@H](C(=O)Nc2ccc([Si](C)(C)C)c(F)c2)N(C)C(=O)c2cc(O)no2)cc1` [Example 24, N-((1R)-2-((3-fluoro-4-(trimethylsilyl)phenyl)amino)-1-(4-methoxyphenyl)-2-oxoethyl)-3-hydroxy-N-methyl-1,2-oxazole-5-carboxamide], the values for the inhibition at 1 µM at RORγt [1] and on RORγt [3] were 95.3% and 102%, respectively. For the same molecule, the “percent inhibition of IL-17A gene expression” value in the assay on IL-17A gene expression is 65%. Besides, the “percent inhibition of ear thickness” value in assay [2] (IL-23 intradermally in the ear 5 times every other day) is on record as 76%. For the same molecule, in assay [2] (ear tissue, ELISA normalized to protein), the “percent inhibition of IL-17 production” value stood at 96%. Further, the inhibition at 3 µM at RORγt [4] turned out to be 100%.
